Experimental data from the supplement of paper PMC11451515.

Test system: SEM cells
Assay: cell viability relative to DMSO control; higher = less cytotoxic
Settings: 48 h
How it was run: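 Viability, reported as a per-plate percentage of DMSO wells with cell-free wells as background, came from CellTiter-Glo One luminescence. Reading took place after 48 h at 37°C. Before that, NOMO1 or SEM (500 cells/well) or P12-Ichikawa (1000 cells/well) leukemia cells, adapted for at least four passages in each medium, were seeded in 1536-well plates (5 μl) and pin-dosed with library compounds in DMSO, 47 μM to 0.79 nM over 11 threefold points.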

[1] = HPLM + 10% dialyzed FBS, 0.000781 µM
[2] = HPLM + 10% dialyzed FBS, 0.00234 µM
[3] = HPLM + 10% dialyzed FBS, 0.00702 µM
[4] = HPLM + 10% dialyzed FBS, 0.0211 µM
[5] = HPLM + 10% dialyzed FBS, 0.0632 µM
[6] = HPLM + 10% dialyzed FBS, 0.19 µM
[7] = HPLM + 10% dialyzed FBS, 0.569 µM
[8] = HPLM + 10% dialyzed FBS, 1.71 µM
[9] = HPLM + 10% dialyzed FBS, 5.12 µM
[10] = HPLM + 10% dialyzed FBS, 15.4 µM
[11] = HPLM + 10% dialyzed FBS, 46.1 µM
[12] = RPMI 5 mM glucose + 10% FBS, 0.000781 µM
[13] = RPMI 5 mM glucose + 10% FBS, 0.00234 µM
[14] = RPMI 5 mM glucose + 10% FBS, 0.00702 µM
[15] = RPMI 5 mM glucose + 10% FBS, 0.0211 µM
[16] = RPMI 5 mM glucose + 10% FBS, 0.0632 µM
[17] = RPMI 5 mM glucose + 10% FBS, 0.19 µM
[18] = RPMI 5 mM glucose + 10% FBS, 0.569 µM
[19] = RPMI 5 mM glucose + 10% FBS, 1.71 µM
[20] = RPMI 5 mM glucose + 10% FBS, 5.12 µM
[21] = RPMI 5 mM glucose + 10% FBS, 15.4 µM
[22] = RPMI 5 mM glucose + 10% FBS, 46.1 µM
[23] = RPMI 5 mM glucose + 10% dialyzed FBS, 0.000781 µM
[24] = RPMI 5 mM glucose + 10% dialyzed FBS, 0.00234 µM
[25] = RPMI 5 mM glucose + 10% dialyzed FBS, 0.00702 µM
[26] = RPMI 5 mM glucose + 10% dialyzed FBS, 0.0211 µM
[27] = RPMI 5 mM glucose + 10% dialyzed FBS, 0.0632 µM
[28] = RPMI 5 mM glucose + 10% dialyzed FBS, 0.19 µM
[29] = RPMI 5 mM glucose + 10% dialyzed FBS, 0.569 µM
[30] = RPMI 5 mM glucose + 10% dialyzed FBS, 1.71 µM
[31] = RPMI 5 mM glucose + 10% dialyzed FBS, 5.12 µM
[32] = RPMI 5 mM glucose + 10% dialyzed FBS, 15.4 µM
[33] = RPMI 5 mM glucose + 10% dialyzed FBS, 46.1 µM

Compound	cell viability [1] [%]	cell viability [2] [%]	cell viability [3] [%]	cell viability [4] [%]	cell viability [5] [%]	cell viability [6] [%]	cell viability [7] [%]	cell viability [8] [%]	cell viability [9] [%]	cell viability [10] [%]	cell viability [11] [%]	cell viability [12] [%]	cell viability [13] [%]	cell viability [14] [%]	cell viability [15] [%]	cell viability [16] [%]	cell viability [17] [%]	cell viability [18] [%]	cell viability [19] [%]	cell viability [20] [%]	cell viability [21] [%]	cell viability [22] [%]	cell viability [23] [%]	cell viability [24] [%]	cell viability [25] [%]	cell viability [26] [%]	cell viability [27] [%]	cell viability [28] [%]	cell viability [29] [%]	cell viability [30] [%]	cell viability [31] [%]	cell viability [32] [%]	cell viability [33] [%]
CCCCCN(CCC12CC3CC(CC(C3)C1)C2)C(=O)NCCCc1ccncc1	96.2	110	108	106	102	109	107	106	107	102	89.9	97.1	92.9	100	106	112	110	97.3	114	96.9	108	100	86.9	96	106	110	105	107	106	116	120	90.6	97
Cc1c(C(=O)c2cccc3ccccc23)c2cccc3c2n1[C@H](CN1CCOCC1)CO3	99.3	78.2	85.2	89.5	89.7	28.8	97.9	86.7	84	78.1	4.91	93.6	74.4	71.3	94.6	88.6	47.8	93.1	80.4	95.6	84.9	4.48	104	80.4	82	105	98	65.1	92.3	93.1	91.7	76.5	5.76
CC(C)(Sc1ccc(CCN(CCCCC2CCCCC2)C(=O)NC2CCCCC2)cc1)C(=O)O	98.9	105	110	102	106	113	111	96.3	94.4	93.9	98.9	96.3	108	117	114	102	105	105	98.8	107	89.6	75.9	103	107	102	111	117	101	114	96.9	101	113	82.1
Nc1nc(NCCNc2ncc(-n3ccnc3)c(-c3ccc(Cl)cc3Cl)n2)ccc1[N+](=O)[O-]	120	134	112	135	123	132	132	99.6	104	121	107												135	124	119	129	138	123	128	116	93.4	116	103
CCOC(=O)N[C@@H]1CC[C@@H]2[C@@H](C1)C[C@H]1C(=O)O[C@H](C)[C@H]1[C@H]2/C=C/c1ccc(-c2cccc(F)c2)cn1	86.6	87.5	102	111	105	104	111	99.5	112	104	75.7	95.9	81.8	98.5	107	111	107	106	103	103	100	23.3	108	87.3	110	112	117	115	108	119	112	112	37.1
C1COC(NC(C2CC2)C2CC2)=N1	79.5	78	66.1	95.3	72.9	87.9	81.2	21.6	88.7	99	60.1	72.5	92	72.4	75.8	79.5	81.4	87.2	15.3	75.6	75.6	45.9	74.6	89.1	66.9	75.7	73.6	81.8	106	16.6	87.5	105	36.4
Nc1nc(N)c(N=O)c(OCC2CCCCC2)n1	71.5	92.1	54.6	88.7	91.9	100	89.4	75.5	40.8	39	28.2	94.7	84.2	56.6	91.4	97.2	93.3	96.7	74	47.8	38.1	27.4	81.6	86.2	71.4	86.8	96	100	102	79	56.5	45.2	32
CN1CCC(CC1)=C2C3=C(C=CC=C3)\C=C/C4=C2C=CC=C4	102	109	120	121	125	126	123	112	131	105	103	118	121	126	115	125	135	139	138	130	113	101	101	109	117	117	133	134	130	104	119	112	86.7
Oc1ccc2ccccc2c1SSc1c(O)ccc2ccccc12	95	102	109	116	106	85.8	99.5	96.2	108	97.3	9.05	104	109	95	102	111	79.1	103	99.4	104	78.9	30	95	99.6	84.3	113	92.5	66.9	93.1	104	87.6	74.7	20.1
CC(C)c1c(C(=O)Nc2ccccc2)c(-c2ccccc2)c(-c2ccc(F)cc2)n1CC[C@@H](O)C[C@@H](O)CC(=O)[O-]	108	117	103	113	112	102	93.2	104	99.8	75	69.9	81.9	92.3	110	120	103	86.3	98.3	97	88.6	70	45.1	99.6	109	104	106	93.4	68.5	104	97.8	93.3	80	60.9
Cc1nc(N)ncc1-c1nc(N2CCOCC2)c2sc(C(C)(C)O)cc2n1	97.7	114	118	118	113	40.1	14.2	9.64	8.13	7.64	5.09	92.7	85.3	78.2	74.2	13.6	11.7	9.07	7.73	6.03	5.59	4.95	115	130	112	122	79.5	17.6	13	9.39	7.85	6.82	5.41
CC[C@H]1CN2CCc3cc(OC)c(OC)cc3[C@@H]2C[C@@H]1C[C@H]1NCCc2cc(OC)c(OC)cc21	40.6	88.1	71.5	73.9	89.7	38.6	11.8	10.1	7.04	7.04	6.06	46.7	94.3	67.6	79.9	90.9	61	14.7	11	8.47	9.05	7.9	35.8	99.2	74.9	96	113	67.8	22.2	13	9.62	9.49	8.97
C[N]1N=CC=C1C/2=C(\C)N(C(=O)C(=C2)/C(=O)NCC3=NC=C(C=C3)[S+](C)([O-])=O)C4=CC=CC(=C4)C(F)(F)F	96	98.3	100	103	105	103	99.5	105	91.2	95.4	77.9												90	105	120	126	115	112	108	115	100	107	76
Nc1ccc([S+](=O)([O-])Nc2ncccn2)cc1	100	103	105	96.8	109	117	99.7	110	103	109	112	110	108	120	86.1	117	117	108	122	126	114	110	111	109	125	74.4	122	136	133	129	145	134	124
COc1cc(OC)c(C(=O)CCCN2CCCC2)c(OC)c1	119	117	127	114	115	108	115	113	93	107	109	122	143	118	135	126	118	127	112	109	105	123											
N#Cc1ccnc(N2C(=O)CC[C@H]2C(=O)N(c2cncc(F)c2)[C@H](C(=O)NC2CC(F)(F)C2)c2ccccc2Cl)c1	94.8	104	92.2	83.1	93.7	96.7	93.6	87.6	25.4	17.6	19.1	119	144	119	132	146	134	108	50.5	19.1	14.9	16.1	104	100	94.6	110	91.9	101	105	85.9	34	16.4	17.9
